The record followed here is ChEMBL document CHEMBL2384968, “Characterization of maleimide-based glycogen synthase kinase-3 (GSK-3) inhibitors as stimulators of steroidogenesis” (J Med Chem, 2013).

Series [1] is described as follows: Cytotoxicity against mouse MA-10 cells at 0.1 to 100 uM after 2 hrs by MTT assay. In kind it is cell-based. The following applies: ma-10, 2 h. In general terms: Tetrazolium dyes change colour on reduction, which living cells bring about.
For series [2], the target named is Glycogen synthase kinase-3 beta (Homo sapiens, UniProt P49841). Description: Inhibition of human GSK3beta-mediated YRRAAVPPSPSLSRHSSPHQ(pS)EDEEE phosphorylation.
A short description of series [3]: Cytotoxicity against mouse MA-10 cells at 100 uM after 2 hrs by MTT assay. In kind it is cell-based. The following applies: ma-10, 2 h.
Series [4] can be described thus: Kinetic aqueous solubility of the compound by HPLC analysis. To be noted: read-out: Kinetic_solubility. It counts as physicochemical.

In brackets after ≈: the same amount, converted by molar mass.

Broadly, the IC50 is the point on the concentration scale where inhibition reaches its midpoint. Higher therefore signals weaker potency in that assay.

Chain of Glycogen synthase kinase-3 beta (P49841 whole entry): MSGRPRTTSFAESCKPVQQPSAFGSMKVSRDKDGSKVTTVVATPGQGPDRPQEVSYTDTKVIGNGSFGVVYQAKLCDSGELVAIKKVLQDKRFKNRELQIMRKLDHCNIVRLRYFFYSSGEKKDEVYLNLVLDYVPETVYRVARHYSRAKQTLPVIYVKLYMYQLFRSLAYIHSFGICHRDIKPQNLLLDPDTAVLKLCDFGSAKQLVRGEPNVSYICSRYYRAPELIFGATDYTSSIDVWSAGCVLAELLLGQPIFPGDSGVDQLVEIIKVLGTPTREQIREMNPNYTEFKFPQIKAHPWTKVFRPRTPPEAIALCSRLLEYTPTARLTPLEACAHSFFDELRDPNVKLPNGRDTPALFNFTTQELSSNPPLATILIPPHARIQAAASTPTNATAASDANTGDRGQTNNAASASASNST

On to `COCCn1cc(C2=C(c3coc4ccccc34)C(=O)NC2=O)c2cccnc21`, for which the Activity entry in series [1] and in series [3] was “Toxic” throughout. In series [2], this compound returned an IC50 of 58.2 nM.

As to `COCCc1cccc2c(C3=C(c4coc5ccccc45)C(=O)NC3=O)cn(C)c12`, the Activity entry in series [1] and in series [3] was “Non-toxic” in each case. In addition, the half-maximal inhibitory concentration (IC50) in series [2] came out at 11.2 nM.

Regarding `COCCn1cc(C2=C(c3coc4ccccc34)C(=O)NC2=O)c2cc(F)ccc21`, it took 39.7 nM to reach half-maximal inhibition in series [2] (IC50).

As to `O=C1NC(=O)C(c2cn(CCCO)c3ccc(F)cc23)=C1c1coc2ccccc12`, the IC50 in series [2] came to 15 nM.

In turn, `Cn1cc(C2=C(c3coc4ccccc34)C(=O)NC2=O)c2cccc(CCOC(C)(C)C)c21` showed an IC50 in series [2] of 148 nM.

For `COCCn1cc(C2=C(c3coc4ccccc34)C(=O)NC2=O)c2ccccc21`, the Activity entry in series [1] and in series [3] was “Non-toxic” each time. In series [2], this compound showed a half-maximal inhibitory concentration (IC50) of 19.8 nM.

Turning to `O=C1NC(=O)C(c2cn3c4c(cc(Br)cc24)CNCC3)=C1c1coc2ccccc12`, the Activity entry in series [1] and in series [3] was “Toxic” throughout. The compound further yielded an IC50 in series [2] of 11.5 nM.

`Cn1cc(C2=C(c3cnc4ccccn34)C(=O)NC2=O)c2cc3c(cc21)OCO3` came in with an IC50 in series [2] of 5.3 nM.

Regarding `COc1cc2c(C3=C(c4coc5ccccc45)C(=O)NC3=O)cn(C)c2cn1`, the Activity entry in series [1] is reported as “Non-toxic”. The same compound registered an IC50 in series [2] of 65.9 nM.

As for `COCCn1cc(C2=C(c3coc4ccccc34)C(=O)NC2=O)c2cc(F)c(F)cc21`, the Activity result in series [1] and in series [3] was “Toxic” throughout. The compound further returned an IC50 in series [2] of 35.7 nM.

For the compound `O=C1NC(=O)C(c2cn3c4c(cc(F)cc24)CNCC3)=C1c1coc2ccccc12`, the Activity result in series [1] and in series [3] was “Toxic” each time. In series [2], the IC50 came out at 3.7 nM.

On to `O=C1NC(=O)C(c2cn(CCO)c3ccc(Br)cc23)=C1c1coc2ccccc12`, for which, in series [2], the 50% inhibitory concentration (IC50) came to 21.4 nM.

With `Cn1cc(C2=C(c3coc4ccccc34)C(=O)NC2=O)c2cccnc21`, in series [2], inhibition was half-maximal at 17.6 nM (IC50).

Turning to `O=C1NC(=O)C(c2cn3c4c(cc(F)cc24)CN(C(=O)N2CCCCC2)CC3)=C1c1coc2ccccc12`, in series [1], the Activity result is “Non-toxic”. The compound further yielded a half-maximal inhibitory concentration (IC50) in series [2] of 1.9 nM.

For the compound `NCCn1cc(C2=C(c3coc4ccccc34)C(=O)NC2=O)c2cc(F)ccc21`, the IC50 in series [2] came out at 41.1 nM.

Take `COCCn1cc(C2=C(c3coc4ccccc34)C(=O)NC2=O)c2cc(Br)cnc21`: the Activity entry in series [1] and in series [3] was “Non-toxic” throughout. The IC50 in series [2] amounted to 25.2 nM.

Compound `CNCCCn1cc(C2=C(c3coc4ccccc34)C(=O)NC2=O)c2cc(Br)ccc21` had an IC50 in series [2] of 404 nM.

In the case of `CNCCCn1cc(C2=C(c3coc4ccccc34)C(=O)NC2=O)c2cc(F)ccc21`, in series [2], the IC50 stood at 202 nM.

Turning to `Cn1cc(C2=C(c3coc4ccccc34)C(=O)NC2=O)c2cc(Br)cnc21`, the Activity entry in series [1] and in series [3] was “Non-toxic” in each case. In series [2], this compound returned a half-maximal inhibitory concentration (IC50) of 5.3 nM.

For `O=C1NC(=O)C(c2cn3c4c(cccc24)CN(C(=O)Cc2ccncc2)CC3)=C1c1coc2ccccc12`, the Activity entry in series [1] and in series [3] was “Toxic” in each case. The same compound returned a half-inhibitory concentration (IC50) in series [2] of 0.59 nM.

In series [2], `COCCn1cc(C2=C(c3coc4ccccc34)C(=O)NC2=O)c2cc(Br)ccc21` showed an IC50 of 82.3 nM.

For the compound `O=C1NC(=O)C(c2cn3c4c(cccc24)CN(C(=O)c2cnccn2)CC3)=C1c1coc2ccccc12`, the Activity entry in series [1] and in series [3] was “Toxic” throughout. The compound also registered a half-inhibitory concentration (IC50) in series [2] of 0.2 nM.

As to `COCCn1cc(C2=C(c3coc4ccccc34)C(=O)NC2=O)c2cc(OC)ncc21`, the half-inhibitory concentration (IC50) in series [2] worked out at 127 nM.

For the compound `Cn1cc(C2=C(c3cnc4ccccn34)C(=O)NC2=O)c2cc(Br)ccc21`, the Activity entry in series [1] is “Non-toxic”. The same compound registered a half-maximal inhibitory concentration (IC50) in series [2] of 0.87 nM. Besides, the solubility kinetic in series [4] amounted to 35 µg/mL (≈ 83.1 µM).

Turning to `NCCn1cc(C2=C(c3coc4ccccc34)C(=O)NC2=O)c2cc(Br)ccc21`, the half-maximal inhibitory concentration (IC50) in series [2] was 116 nM. Besides, the solubility kinetic in series [4] amounted to 180 µg/mL (≈ 400 µM).

The compound `O=C1NC(=O)C(c2cn(CCO)c3ccc(F)cc23)=C1c1coc2ccccc12` registered a half-inhibitory concentration (IC50) in series [2] of 4.8 nM.

As to `Cn1cc(C2=C(c3coc4ccccc34)C(=O)NC2=O)c2cc(Br)ccc21`, the Activity entry in series [1] and in series [3] was “Non-toxic” throughout.

For `O=C1NC(=O)C(c2cn3c4c(cc(F)cc24)CN(C(=O)N2CCOCC2)CC3)=C1c1coc2ccccc12`, the Activity result in series [1] and in series [3] was “Toxic” throughout. In series [2], this compound returned an IC50 of 0.013 nM.

The compound `O=C1NC(=O)C(c2cn3c4c(cccc24)CNCC3)=C1c1coc2ccccc12` had a 50% inhibitory concentration (IC50) in series [2] of 4.2 nM. In series [4], the solubility kinetic stood at 240 µg/mL (≈ 626 µM).

As to `O=C1NC(=O)C(c2cn3c4c(cc(F)cc24)CN(C(=O)N2CCC(N4CCCCC4)CC2)CC3)=C1c1coc2ccccc12`, the Activity result in series [1] and in series [3] was “Toxic” in each case. For the same compound, the IC50 in series [2] was 0.53 nM.

In the case of `COCCc1cccc2c(C3=C(c4coc5ccccc45)C(=O)NC3=O)cn(CCOC)c12`, the Activity result in series [1] and in series [3] was “Toxic” in each case. In series [2], the half-inhibitory concentration (IC50) was 114 nM.
